Experimental data taken from the supplement of paper PMC10307832.

Legend:
Experiment in all cases: relative viability (nuclei count vs DMSO), 5 days (fraction); higher = more cells survive
Alisertib + Linsitinib = compound: COc1cc(Nc2ncc3c(n2)-c2ccc(Cl)cc2C(c2c(F)cccc2OC)=NC3)ccc1C(=O)O [Alisertib] + C[C@]1(O)C[C@@H](c2nc(-c3ccc4ccc(-c5ccccc5)nc4c3)c3c(N)nccn32)C1 [Linsitinib] (partner 1 µM)
Outline: (§1)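 Medians of duplicate plates are given as relative viability. That measure is the nuclei count in treated wells divided by the count in vehicle wells. Counts were taken on 4× images of lung cancer cell lines in 1536-well plates, 5 days after pin-tool dosing the day after seeding with one drug alone or a fixed anchor-drug dose plus five library-drug doses (not always all listed) in √10 steps.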

Alisertib + Pemetrexed = compound: COc1cc(Nc2ncc3c(n2)-c2ccc(Cl)cc2C(c2c(F)cccc2OC)=NC3)ccc1C(=O)O [Alisertib] + Nc1nc2[nH]cc(CCc3ccc(C(=O)N[C@@H](CCC(=O)O)C(=O)O)cc3)c2c(=O)[nH]1 [Pemetrexed] (partner 0.2 µM)
Outline: as §1

Alisertib + Vorinostat = compound: COc1cc(Nc2ncc3c(n2)-c2ccc(Cl)cc2C(c2c(F)cccc2OC)=NC3)ccc1C(=O)O [Alisertib] + O=C(CCCCCCC(=O)Nc1ccccc1)NO [Vorinostat] (partner 1 µM)
Outline: as §1

Alisertib + Olaparib = compound: COc1cc(Nc2ncc3c(n2)-c2ccc(Cl)cc2C(c2c(F)cccc2OC)=NC3)ccc1C(=O)O [Alisertib] + O=C(c1cc(Cc2n[nH]c(=O)c3ccccc23)ccc1F)N1CCN(C(=O)C2CC2)CC1 [Olaparib] (partner 8 µM)
Outline: as §1

| Cell Line | relative viability (Alisertib + Linsitinib; first compound 0.005 µM) | relative viability (Alisertib + Linsitinib; first compound 0.01581 µM) | relative viability (Alisertib + Linsitinib; first compound 0.05 µM) | relative viability (Alisertib + Linsitinib; first compound 0.1581 µM) | relative viability (Alisertib + Linsitinib; first compound 0.5 µM) | relative viability (Alisertib + Pemetrexed; first compound 0.005 µM) | relative viability (Alisertib + Pemetrexed; first compound 0.01581 µM) | relative viability (Alisertib + Pemetrexed; first compound 0.05 µM) | relative viability (Alisertib + Pemetrexed; first compound 0.1581 µM) | relative viability (Alisertib + Pemetrexed; first compound 0.5 µM) | relative viability (Alisertib + Vorinostat; first compound 0.005 µM) | relative viability (Alisertib + Vorinostat; first compound 0.01581 µM) | relative viability (Alisertib + Vorinostat; first compound 0.05 µM) | relative viability (Alisertib + Vorinostat; first compound 0.1581 µM) | relative viability (Alisertib + Vorinostat; first compound 0.5 µM) | relative viability (Alisertib + Olaparib; first compound 0.005 µM) | relative viability (Alisertib + Olaparib; first compound 0.01581 µM) | relative viability (Alisertib + Olaparib; first compound 0.05 µM) | relative viability (Alisertib + Olaparib; first compound 0.1581 µM) | relative viability (Alisertib + Olaparib; first compound 0.5 µM) |
| --- | --- | --- | --- | --- | --- | --- | --- | --- | --- | --- | --- | --- | --- | --- | --- | --- | --- | --- | --- | --- |
| COR-L 105 | 0.879 | 0.722 | 0.682 | 0.332 | 0.241 | 1.08 | 0.995 | 0.952 | 0.607 | 0.298 | 0.687 | 0.701 | 0.496 | 0.302 | 0.321 | 0.689 | 0.641 | 0.502 | 0.498 | 0.311 |
| EKVX | 0.942 | 0.831 | 0.344 | 0.211 | 0.183 | 0.364 | 0.377 | 0.266 | 0.172 | 0.187 | 0.684 | 0.551 | 0.285 | 0.263 | 0.319 | 0.848 | 0.674 | 0.282 | 0.207 | 0.203 |
| EMC-BAC-2 | 0.752 | 0.595 | 0.298 | 0.279 | 0.202 | 0.445 | 0.429 | 0.447 | 0.405 | 0.3 | 0.28 | 0.257 | 0.202 | 0.186 | 0.151 | 0.452 | 0.356 | 0.291 | 0.294 | 0.214 |
| EPLC-272H | 0.998 | 0.865 | 0.921 | 0.3 | 0.131 | 0.284 | 0.245 | 0.172 | 0.138 | 0.118 | 0.454 | 0.401 | 0.248 | 0.104 | 0.132 | 0.671 | 0.471 | 0.293 | 0.0899 | 0.116 |
| H3255 | 0.898 | 0.832 | 0.418 | 0.192 | 0.164 | 0.516 | 0.572 | 0.457 | 0.309 | 0.255 | 0.8 | 0.822 | 0.656 | 0.337 | 0.264 | 0.547 | 0.566 | 0.385 | 0.292 | 0.24 |
| HARA | 1.03 | 0.919 | 0.361 | 0.189 | 0.0844 | 0.262 | 0.211 | 0.26 | 0.21 | 0.125 | 0.44 | 0.131 | 0.0659 | 0.0632 | 0.0823 | 0.763 | 0.703 | 0.17 | 0.328 | 0.146 |
| HCC-15 | 0.863 | 0.725 | 0.275 | 0.159 | 0.113 | 0.234 | 0.212 | 0.187 | 0.143 | 0.135 | 0.777 | 0.588 | 0.201 | 0.167 | 0.134 | 0.689 | 0.444 | 0.191 | 0.165 | 0.145 |
| HCC-44 | 0.73 | 0.683 | 0.42 | 0.328 | 0.113 | 0.566 | 0.601 | 0.545 | 0.45 | 0.394 | 1.05 | 0.784 | 0.397 | 0.387 | 0.339 | 0.944 | 0.856 | 0.501 | 0.508 | 0.391 |
| HCC-78 | 0.412 | 0.418 | 0.183 | 0.15 | 0.187 | 0.889 | 0.909 | 0.895 | 0.959 | 0.926 | 0.369 | 0.281 | 0.234 | 0.241 | 0.217 | 0.772 | 0.503 | 0.23 | 0.292 | 0.218 |
| HCC-366 | 0.688 | 0.611 | 0.043 | 0.0079 | 0.0142 | 0.169 | 0.131 | 0.0451 | 0.0421 | 0.0514 | 0.171 | 0.0448 | 0.0208 | 0.0312 | 0.0381 | 0.32 | 0.173 | 0.0172 | 0.0252 | 0.0457 |
| HCC-827 | 0.908 | 0.928 | 0.543 | 0.434 | 0.316 | 0.277 | 0.264 | 0.25 | 0.232 | 0.173 | 0.779 | 0.717 | 0.753 | 0.29 | 0.274 | 0.639 | 0.654 | 0.201 | 0.293 | 0.257 |
| HOP-62 | 0.551 | 0.853 | 0.305 | 0.203 | 0.155 | 0.282 | 0.283 | 0.204 | 0.171 | 0.112 | 0.497 | 0.443 | 0.174 | 0.102 | 0.138 | 0.361 | 0.328 | 0.134 | 0.132 | 0.0731 |
| LC-2-ad | 0.643 | 0.399 | 0.187 | 0.135 | 0.121 | 0.263 | 0.228 | 0.215 | 0.177 | 0.175 | 0.454 | 0.313 | 0.24 | 0.177 | 0.161 | 0.642 | 0.523 | 0.211 | 0.245 | 0.192 |
